Laboratory results: patent US4108991A, “N-aminosulfenyl derivatives of aldicarb” (priority 1976, dated 1978)
Where “and” joins values, the source holds several entries; their conditions need not be identical. Equal entries are not always repeated.

Legend:
Mexican bean beetle [1] = test: Residual (7-day) contact activity, Mexican bean beetle; type: in vivo, Epilachna varivestis Muls.; conditions: Epilachna varivestis, 168 h
Method: (§1) Initial Contact Activity: One half gram of test compound was dissolved in 40 ml of acetone and this solution was dispersed in 360 ml of water containing one drop of isooctylphenyl polyethoxyethanol. Aliquots of this solution, which corresponds to 1250 ppm of active ingredient, were diluted with an appropriate amount of water to provide solutions containing various concentrations of active ingredient. Test organisms and techniques were as follows: The activity against the Mexican bean beetle (Epilachna varivestis Muls.) and the southern armyworm (Spodoptera eridania [Cram.]) was evaluated by dipping the leaves of pinto bean plants into the test solution and infesting the leaves with the appropriate immature-form insects when the foiliage had dried; the activity against the pea aphid (Acyrthosiphon pisum [Harris]) was evaluated on broad bean plants whose leaves were dipped before infestation with adult aphids; the activity against two-sotted spider mites (Tetranychus urticae Koch) was evaluated on pinto bean plants whose leaves were dipped after infestation with adult mites; the activity against the milkweed bug (Oncopeltus fasciatus [Dallas]), and the plum curculio (Conotrachelus nenuphar [Herbst]) was evaluated by spraying the test solutions into glass dishes or jars containing the adult insects; the activity against the confused flour beetle (Tribolium confusum duVal) was evaluated by introducing the insects into glass dishes which had been previously sprayed with test solution and allowed to dry. All organisms in the test were maintained in a holding room at 80° F and 50% relative humidity for an exposure period of 48 hours. At the end of this time, the dead and living insects or mites were counted, and the percent kill was calculated.
(§2) Residual Contact Activity: The residual contact activity of the compounds was determined on the same organisms using the techniques described above, except that in each case the treated surface was allowed to dry and was exposed to normal light and air for seven days before introduction of the mites or insects.

Two-spotted spider mite [2] = test: Initial contact activity, leaf dip, two-spotted spider mite; type: in vivo, Tetranychus urticae Koch; conditions: for Percent Kill: initial, SM, 48 hours, 2880 min
Method: as §1

Pea aphid [3] = test: Residual (7-day) contact activity, pea aphid; type: in vivo, Acyrthosiphon pisum [Harris]; conditions: Acyrthosiphon pisum, 168 h
Method: as §1, §2

Two-spotted spider mite [4] = test: Systemic activity, soil-watering, two-spotted spider mite; type: in vivo, Tetranychus urticae Koch; conditions: Tetranychus urticae, 48 h
Method: as §1
(§3) Systemic Activity: Systemic activity was measured using a soil-watering technique. Test organisms were Mexican bean beetle, southern armyworm, pea aphid, and mites on plants as described above in this Example. With appropriate precautions to avoid contact of the solution with the test plant surfaces, 25 ml of a test solution, prepared as above to contain the desired amount of active ingredient, were poured evenly over the surface of the soil in which the plant was growing. The treated plants were maintained under normal growing conditions for three days to permit translocation of the toxicant, after which the leaves were infested. Two days after infestation, counts of living and dead insects were made.

Mexican bean beetle [5] = test: Initial contact activity, leaf dip, Mexican bean beetle; type: in vivo, Epilachna varivestis Muls.
Method: as §1

Granary Weevil [6] = test: Initial contact activity, granary weevil; type: in vivo
Granary Weevil [7] = test: Residual (7-day) contact activity, granary weevil; type: in vivo; conditions: Sitophilus granarius, 168 h, read-out: Percent Kill
Confused flour beetle [8] = test: Initial contact activity, sprayed dishes, confused flour beetle; type: in vivo, Tribolium confusum duVal; conditions: Tribolium confusum, 48 h, read-out: Percent Kill
Method: as §1

Plum curculio [9] = test: Residual (7-day) contact activity, plum curculio; type: in vivo, Conotrachelus nenuphar [Herbst]
Method: as §1, §2

Pea aphid [10] = test: Initial contact activity, leaf dip, pea aphid; type: in vivo, Acyrthosiphon pisum [Harris]; conditions: for Percent Kill: initial, PA, 48 hours
Method: as §1

Plum curculio [11] = test: Initial contact activity, spray, plum curculio; type: in vivo, Conotrachelus nenuphar [Herbst]; conditions: Conotrachelus nenuphar, 48 h, read-out: Percent Kill
Method: as §1

Southern armyworm = test: Systemic activity, soil-watering, southern armyworm; type: in vivo, Spodoptera eridania [Cram.]; conditions: Spodoptera eridania, 48 h, read-out: Percent Kill
Method: as §1, §3

Milkweed bug = test: Initial contact activity, spray, milkweed bug; type: in vivo, Oncopeltus fasciatus [Dallas]
Method: as §1

Pea aphid [12] = test: Systemic activity, soil-watering, pea aphid; type: in vivo, Acyrthosiphon pisum [Harris]
Method: as §1, §3

Mexican bean beetle [13] = test: Systemic activity, soil-watering, Mexican bean beetle; type: in vivo, Epilachna varivestis Muls.; conditions: Epilachna varivestis, 48 h
Method: as §1, §3

Confused flour beetle [14] = test: Residual (7-day) contact activity, confused flour beetle; type: in vivo, Tribolium confusum duVal; conditions: Tribolium confusum, 168 h, read-out: Percent Kill
Method: as §1, §2

[15] = Conotrachelus nenuphar, 168 h, read-out: Percent Kill

For `CNC(=O)ON=CC(C)(C)SC` [Aldicarb, 2-methyl-2-(methylthio)propanal O-(methylcarbamoyl)oxime], the mortality at 625 ppm (Mexican bean beetle [1]; read-out: Percent Kill, residual 7-day, BB, 625 PPM) was 47%, the mortality at 1250 ppm (Mexican bean beetle [1]; read-out: Percent Kill, residual 7-day, BB, 1250 PPM) was 100% and the mortality at 5 ppm (Two-spotted spider mite [2]; Tetranychus urticae, foliar, 48 h, read-out: Percent Kill, initial, SM, 5 PPM, 48 hours) was 21%. For the same molecule, the mortality at 10 ppm (Two-spotted spider mite [2]; Tetranychus urticae, foliar, 48 h, read-out: Percent Kill, initial, SM, 10 PPM, 48 hours) was 88%, the mortality at 20 ppm (Two-spotted spider mite [2]; Tetranychus urticae, foliar, 48 h, read-out: Percent Kill, initial, SM, 20 PPM, 48 hours) was 100% and the mortality at 39 ppm (Two-spotted spider mite [2]; Tetranychus urticae, foliar, 48 h, read-out: Percent Kill, initial, SM, 39 PPM, 48 hours) was 100%. For the same molecule, the mortality at 156 ppm (Two-spotted spider mite [2]; Tetranychus urticae, foliar, 48 h, read-out: Percent Kill, initial, SM, 156 PPM, 48 hours) was 100%, the mortality at 1250 ppm (Two-spotted spider mite [2]; Tetranychus urticae, foliar, 48 h, read-out: Percent Kill, initial, SM, 1250 PPM, 48 hours) was 100% and the “Percent Kill” value (Two-spotted spider mite [2]; 10 PPM) was 100%. The “Percent Kill” value (Two-spotted spider mite [2]; 1250 PPM) was 95%, the mortality at 156 ppm (Pea aphid [3]; read-out: Percent Kill, residual 7-day, PA, 156 PPM) was 0% and the mortality at 625 ppm (Pea aphid [3]; read-out: Percent Kill, residual 7-day, PA, 625 PPM) was 10%. The mortality at 1250 ppm (Pea aphid [3]; read-out: Percent Kill, residual 7-day, PA, 1250 PPM) was 100%, the mortality at 2.5 ppm (Two-spotted spider mite [4]; read-out: Percent Kill, systemic, SM, 2.5 PPM) was 4.6% and the mortality at 10 ppm (Two-spotted spider mite [4]; read-out: Percent Kill, systemic, SM, 10 PPM) was 100%. The mortality at 39 ppm (Two-spotted spider mite [4]; read-out: Percent Kill, systemic, SM, 39 PPM) was 100%, the mortality at 20 ppm (Mexican bean beetle [5]; Epilachna varivestis, foliar, 48 h, read-out: Percent Kill, initial, BB, 20 PPM, 48 hours) was 0% and the mortality at 39 ppm (Mexican bean beetle [5]; Epilachna varivestis, foliar, 48 h, read-out: Percent Kill, initial, BB, 39 PPM, 48 hours) was 40%. For the same molecule, the mortality at 156 ppm (Mexican bean beetle [5]; Epilachna varivestis, foliar, 48 h, read-out: Percent Kill, initial, BB, 156 PPM, 48 hours) was 89%, the mortality at 312 ppm (Mexican bean beetle [5]; Epilachna varivestis, foliar, 48 h, read-out: Percent Kill, initial, BB, 312 PPM, 48 hours) was 95% and the mortality at 625 ppm (Mexican bean beetle [5]; Epilachna varivestis, foliar, 48 h, read-out: Percent Kill, initial, BB, 625 PPM, 48 hours) was 100%. For the same molecule, the mortality at 1250 ppm (Mexican bean beetle [5]; Epilachna varivestis, foliar, 48 h, read-out: Percent Kill, initial, BB, 1250 PPM, 48 hours) was 100%, the “Percent Kill” value (Mexican bean beetle [5]; initial, BB, 156 PPM, 48 hours, 2880 min) was 91% and the mortality at 20 ppm (Granary Weevil [6]; Sitophilus granarius, 48 h, read-out: Percent Kill, initial, GW, 20 PPM, 48 hours) was 20%. It also gave a mortality at 39 ppm (Granary Weevil [6]; Sitophilus granarius, 48 h, read-out: Percent Kill, initial, GW, 39 PPM, 48 hours) of 40%, a mortality at 156 ppm (Granary Weevil [6]; Sitophilus granarius, 48 h, read-out: Percent Kill, initial, GW, 156 PPM, 48 hours) of 100% and a mortality at 312 ppm (Granary Weevil [6]; Sitophilus granarius, 48 h, read-out: Percent Kill, initial, GW, 312 PPM, 48 hours) of 100%. The mortality at 1250 ppm (Granary Weevil [6]; Sitophilus granarius, 48 h, read-out: Percent Kill, initial, GW, 1250 PPM, 48 hours) was 100%, the “Percent Kill” value (Granary Weevil [6]; initial, GW, 156 PPM, 48 hours, 2880 min) was 97.5% and the mortality at 312 ppm (Granary Weevil [7]) was 3.3%. For the same molecule, the mortality at 1250 ppm (Granary Weevil [7]) was 0%, the mortality at 156 ppm (Confused flour beetle [8]) was 5% and the mortality at 312 ppm (Confused flour beetle [8]) was 10%. The mortality at 1250 ppm (Confused flour beetle [8]) was 90%, the mortality at 156 ppm (Plum curculio [9]; [15]) was 4.8% and the mortality at 312 ppm (Plum curculio [9]; [15]) was 32%. The mortality at 625 ppm (Plum curculio [9]; [15]) was 0%, the mortality at 1250 ppm (Plum curculio [9]; [15]) was 0% and the “Percent Kill” value (Plum curculio [9]; residual 7-day, PC, 1250 PPM) was 0%. It also gave a mortality at 10 ppm (Pea aphid [10]; Acyrthosiphon pisum, foliar, 48 h, read-out: Percent Kill, initial, PA, 10 PPM, 48 hours) of 33%, a mortality at 20 ppm (Pea aphid [10]; Acyrthosiphon pisum, foliar, 48 h, read-out: Percent Kill, initial, PA, 20 PPM, 48 hours) of 35% and a mortality at 156 ppm (Pea aphid [10]; Acyrthosiphon pisum, foliar, 48 h, read-out: Percent Kill, initial, PA, 156 PPM, 48 hours) of 100%. For the same molecule, the mortality at 1250 ppm (Pea aphid [10]; Acyrthosiphon pisum, foliar, 48 h, read-out: Percent Kill, initial, PA, 1250 PPM, 48 hours) was 100%, the “Percent Kill” value (Pea aphid [10]; 39 PPM, 2880 min) was 60% and 85% and the “Percent Kill” value (Pea aphid [10]; 156 PPM) was 100%. For the same molecule, the mortality at 10 ppm (Plum curculio [11]) was 10%, the mortality at 39 ppm (Plum curculio [11]) was 35% and the mortality at 156 ppm (Plum curculio [11]) was 100%. It also gave a mortality at 1250 ppm (Plum curculio [11]) of 100%, a mortality at 39 ppm (Southern armyworm) of 50% and a mortality at 312 ppm (Southern armyworm) of 100%. The mortality at 625 ppm (Southern armyworm) was 100%, the mortality at 5 ppm (Milkweed bug; Oncopeltus fasciatus, 48 h, read-out: Percent Kill, initial, MWB, 5 PPM, 48 hours) was 30% and the mortality at 10 ppm (Milkweed bug; Oncopeltus fasciatus, 48 h, read-out: Percent Kill, initial, MWB, 10 PPM, 48 hours) was 55%. For the same molecule, the mortality at 20 ppm (Milkweed bug; Oncopeltus fasciatus, 48 h, read-out: Percent Kill, initial, MWB, 20 PPM, 48 hours) was 95%, the mortality at 39 ppm (Milkweed bug; Oncopeltus fasciatus, 48 h, read-out: Percent Kill, initial, MWB, 39 PPM, 48 hours) was 100% and the mortality at 156 ppm (Milkweed bug; Oncopeltus fasciatus, 48 h, read-out: Percent Kill, initial, MWB, 156 PPM, 48 hours) was 100%. The mortality at 1250 ppm (Milkweed bug; Oncopeltus fasciatus, 48 h, read-out: Percent Kill, initial, MWB, 1250 PPM, 48 hours) was 100%, the “Percent Kill” value (Milkweed bug; initial, MWB, 10 PPM, 48 hours, 2880 min) was 70% and the mortality at 5 ppm (Pea aphid [12]; Acyrthosiphon pisum, 48 h, read-out: Percent Kill, systemic, PA, 5 PPM) was 100%. For the same molecule, the mortality at 10 ppm (Pea aphid [12]; Acyrthosiphon pisum, 48 h, read-out: Percent Kill, systemic, PA, 10 PPM) was 90%, the mortality at 39 ppm (Pea aphid [12]; Acyrthosiphon pisum, 48 h, read-out: Percent Kill, systemic, PA, 39 PPM) was 100% and the mortality at 321 ppm (Pea aphid [12]; Acyrthosiphon pisum, 48 h, read-out: Percent Kill, systemic, PA, 321 PPM) was 100%. For the same molecule, the “Percent Kill” value (Pea aphid [12]; systemic, PA, 10 PPM, 2880 min) was 100%, the mortality at 39 ppm (Mexican bean beetle [13]; read-out: Percent Kill, systemic, BB, 39 PPM) was 100% and the mortality at 156 ppm (Mexican bean beetle [13]; read-out: Percent Kill, systemic, BB, 156 PPM) was 100%. For the same molecule, the mortality at 312 ppm (Confused flour beetle [14]) was 0% and the mortality at 1250 ppm (Confused flour beetle [14]) was 0%.
